Where two headings read alike, the source gives them in different places.
Legend:
[1] = system: LLCPK cells conditionally expressing hLAT1; test: cells; conditions: 0.5 h, read-out: LC50, concentration of test compound at which the percent surviving cells was 50%
hLAT1 = molecular target: T1, hLAT1 (Homo sapiens, UniProt Q01650); test: LAT1 uptake inhibition assay, radiolabeled competition uptake with [3H]-Gabapentin; type: cell-based
T1 construct: expressed in transfected cells; host or cells: LLCPK cells, tetracycline/doxycycline-inducible, boosted with sodium butyrate
T1 sequence (Q01650 whole entry, one chain of several): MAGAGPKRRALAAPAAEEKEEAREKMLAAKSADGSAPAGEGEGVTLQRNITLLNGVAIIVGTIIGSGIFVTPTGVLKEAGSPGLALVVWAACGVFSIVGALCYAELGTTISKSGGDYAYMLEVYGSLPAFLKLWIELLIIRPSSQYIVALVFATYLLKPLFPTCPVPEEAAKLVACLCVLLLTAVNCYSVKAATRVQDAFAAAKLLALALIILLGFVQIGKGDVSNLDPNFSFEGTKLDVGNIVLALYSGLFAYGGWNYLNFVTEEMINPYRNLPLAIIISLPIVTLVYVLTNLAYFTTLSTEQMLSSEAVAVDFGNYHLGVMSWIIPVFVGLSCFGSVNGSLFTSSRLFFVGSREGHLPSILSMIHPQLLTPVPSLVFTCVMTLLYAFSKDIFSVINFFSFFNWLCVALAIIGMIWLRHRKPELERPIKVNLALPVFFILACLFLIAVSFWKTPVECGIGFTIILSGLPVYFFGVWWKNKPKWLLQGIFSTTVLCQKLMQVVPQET

hLAT2 = molecular target: T2, hLAT2 (Homo sapiens, UniProt Q9UHI5); test: LAT2 uptake inhibition assay, radiolabeled competition uptake with [3H]-leucine; type: cell-based
T2 construct: expressed in transfected cells; host or cells: KB or LLCPK cells, tetracycline/doxycycline-inducible
T2 sequence (Q9UHI5 1-535): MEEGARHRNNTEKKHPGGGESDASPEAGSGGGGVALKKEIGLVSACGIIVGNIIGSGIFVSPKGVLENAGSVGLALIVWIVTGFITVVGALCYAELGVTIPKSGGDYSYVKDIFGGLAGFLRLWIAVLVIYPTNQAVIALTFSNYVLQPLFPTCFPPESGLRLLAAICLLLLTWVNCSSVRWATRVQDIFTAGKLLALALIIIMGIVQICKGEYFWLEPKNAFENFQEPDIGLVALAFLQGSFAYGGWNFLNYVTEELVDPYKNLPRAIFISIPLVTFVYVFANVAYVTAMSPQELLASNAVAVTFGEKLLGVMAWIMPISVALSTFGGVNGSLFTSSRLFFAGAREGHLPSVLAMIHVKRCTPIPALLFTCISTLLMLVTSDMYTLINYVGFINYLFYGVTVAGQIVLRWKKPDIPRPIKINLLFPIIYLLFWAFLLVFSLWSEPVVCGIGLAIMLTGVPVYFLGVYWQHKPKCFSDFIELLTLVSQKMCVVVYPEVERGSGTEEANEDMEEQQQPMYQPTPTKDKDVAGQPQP
T2 sequence (P08195 1-630 isoform P08195-1 partner): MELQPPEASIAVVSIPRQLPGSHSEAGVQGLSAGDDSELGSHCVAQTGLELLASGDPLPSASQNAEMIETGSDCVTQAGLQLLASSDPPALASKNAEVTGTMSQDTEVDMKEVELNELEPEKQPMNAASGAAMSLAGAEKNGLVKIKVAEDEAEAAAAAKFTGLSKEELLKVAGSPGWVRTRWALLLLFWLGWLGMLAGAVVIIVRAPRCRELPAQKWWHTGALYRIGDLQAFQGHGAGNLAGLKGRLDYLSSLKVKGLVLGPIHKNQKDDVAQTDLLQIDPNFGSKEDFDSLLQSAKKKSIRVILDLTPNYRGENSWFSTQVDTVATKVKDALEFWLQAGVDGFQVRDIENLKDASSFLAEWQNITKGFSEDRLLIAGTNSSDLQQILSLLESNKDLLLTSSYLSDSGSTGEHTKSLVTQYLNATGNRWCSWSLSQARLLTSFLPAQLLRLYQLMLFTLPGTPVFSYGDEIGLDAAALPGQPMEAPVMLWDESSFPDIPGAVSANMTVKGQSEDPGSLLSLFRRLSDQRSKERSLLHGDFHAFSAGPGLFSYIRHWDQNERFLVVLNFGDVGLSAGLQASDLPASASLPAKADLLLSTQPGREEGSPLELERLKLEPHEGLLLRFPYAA

HCT116 = test: In vitro cytotoxicity, HCT116; type: cell-based; conditions: Homo sapiens, HCT-116, read-out: IC50 (in vitro toxicity)
MDA-MB-231 = test: cells; type: cell-based; conditions: Homo sapiens, MDA-MB-231, read-out: IC50 (in vitro toxicity)
U251 = test: cells; type: cell-based; conditions: Homo sapiens, U-251, read-out: IC50 (in vitro toxicity)
U251 MG = test: Orthotopic glioblastoma study (Example 84); type: in vivo, mouse; conditions: at a dose of 10 mg/kg, IV
Description: The efficacy of compounds provided by the present disclosure was evaluated using an orthotopic luciferase human glioblastoma model—U251 MG. Human glioblastoma cells were intracolonically injected (3×10^5 cells/3 μL) into athymic mice (female, 4-5 weeks-old, nu/un homozygous). Treatment began when the BLI reached a log-phase growth, at about 14 days after injection. Ten mice were assigned to each arm of the study. The mice were dosed with vehicle (IP, once weekly for 4 weeks), compound (5) (5 mg/kg, IV once weekly for 4 weeks), compound (5) (10 mg/kg, IV once weekly for 4 weeks), compound (40) (10 mg/kg, IV once weekly for 4 weeks), or compound (50) (20 mg/kg, IV single dose). The tumor volume was measured using bioluminescence imaging.

MV411 = test: cells; type: cell-based; conditions: Homo sapiens, MV4-11, read-out: IC50 (in vitro toxicity)
MCF7 = test: In vitro cytotoxicity, MCF7; type: cell-based; conditions: Homo sapiens, MCF7, read-out: IC50 (in vitro toxicity)
LN229 = test: cells; type: cell-based; conditions: Homo sapiens, LN-229, read-out: IC50 (in vitro toxicity)
42MGBA = test: cells; type: cell-based; conditions: read-out: IC50 (in vitro toxicity)
[2] = system: Human prostate cancer PC3 cells; conditions: mouse, in vivo
D283 = test: cells; type: cell-based; conditions: D283, read-out: IC50 (in vitro toxicity)
G55 = test: cells; type: cell-based; conditions: read-out: IC50 (in vitro toxicity)
Raji = test: cells; type: cell-based; conditions: Homo sapiens, read-out: IC50 (in vitro toxicity)
PC3 = test: cells; type: cell-based; conditions: Homo sapiens, PC-3, read-out: IC50 (in vitro toxicity)
DBRTG = test: cells; type: cell-based; conditions: read-out: IC50 (in vitro toxicity)
794 = test: cells; type: cell-based; conditions: read-out: IC50 (in vitro toxicity)
[3] = LAT1-expressing cells, increasing concentration of test compound, read-out: IC50, concentration of test compound at which the [3H]-GP was inhibited by 50%
[4] = KB cells, read-out: IC50, concentration of test compound at which the [3H]-Leu was inhibited by 50%

Molecule Cc1ccc(N(CCCl)CCCl)cc1CC(N)CC(=O)O (racemic) [Compound 3, 3-Amino-4-[5-[bis(2-chloroethyl)amino]-2-methyl-phenyl]butanoic Acid] has a CC50 [1] of under 1 µM.
In the case of Cc1ccc(C(=O)N[C@@H](CC(C)C)C(=O)C2(C)CO2)cc1C[C@H](N)CC(=O)O (stereo in doubt) [Compound 63, (3S)-3-amino-4-[2-methyl-5-[[(1S)-3-methyl-1-[(2R)-2-methyloxirane-2-carbonyl]butyl]carbamoyl]phenyl]butanoic acid], the IC50 (hLAT1; [3]) is reported as under 100 µM and the IC50 (hLAT2; [4]) is reported as under 100 µM.
In the case of Cc1ccc(N(CCBr)CCOS(C)(=O)=O)cc1C[C@H](N)CC(=O)O [Compound 20, (3S)-3-Amino-4-[5-(2-bromoethyl(2-methylsulfonyloxyethyl)amino)-2-methyl-phenyl]butanoic Acid], the IC50 (hLAT2) is reported as under 100 µM.
Cc1ccc(N(CCCl)CCCl)cc1NC(=O)[C@H](N)CC(=O)O [Compound 22, (3R)-3-Amino-4-[[5-[bis(2-chloroethyl)amino]-2-methyl-phenyl]amino]-4-oxo-butanoic Acid] was tested, and the IC50 (hLAT2) was under 100 µM and the CC50 [1] was under 1 µM.
In the case of Cc1cc(N(CCCl)CCCl)ccc1OC[C@H](N)CC(=O)O [Compound 27, (3R)-3-Amino-4-[4-[bis(2-chloroethyl)amino]-2-methyl-phenoxy]butanoic Acid], the CC50 [1] is reported as under 1 µM.
With Cc1ccc(OC(=O)N(CCCl)CCCl)cc1C[C@H](N)CC(=O)O [Compound 29, (3S)-3-Amino-4-[5-[bis(2-chloroethyl)carbamoyloxy]-2-methyl-phenyl]butanoic Acid] the IC50 (hLAT1) was under 100 µM.
Cc1ccc(COC(=O)N(CCCl)CCCl)cc1C[C@H](N)CC(=O)O [Compound 30, (3S)-3-Amino-4-[5-[bis(2-chloroethyl)carbamoyloxymethyl]-2-methyl-phenyl]butanoic Acid] was tested, and the IC50 (hLAT1) was under 100 µM.
Cc1ccc(CON(CCCl)CCCl)cc1C[C@H](N)CC(=O)O [Compound 32, (3S)-3-Amino-4-[5-[bis(2-chloroethyl)aminooxymethyl]-2-methyl-phenyl]butanoic Acid] was tested, and the IC50 (hLAT1) was under 100 µM and the IC50 (hLAT2) was under 100 µM.
CCc1ccc(N(CCCl)CCCl)cc1C[C@H](N)CC(=O)O [Compound 40, (3S)-3-amino-4-[5-[bis(2-chloroethyl)amino]-2-ethyl-phenyl]butanoic acid] showed an IC50 (HCT116) of under 100 µM, an IC50 (MDA-MB-231) of under 100 µM and an IC50 (U251) of under 100 µM. For the same molecule, the IC50 (hLAT1) was under 100 µM, the “glioblastoma tumor growth (bioluminescence imaging)” value (U251 MG) was “suppressed glioblastoma tumor growth” and the IC50 (MV411) was under 100 µM. It also gave an IC50 (MCF7) of under 100 µM, an IC50 (LN229) of under 100 µM and an IC50 (hLAT2) of under 100 µM. For the same molecule, the IC50 (42MGBA) was under 100 µM, the body weight [2] was “maintained weight” and the myelosuppression [2] was “not dectected”. The tumor growth suppression [2] was “dose-dependent tumor growth suppression”, the IC50 (D283) was under 100 µM and the IC50 (G55) was under 100 µM. It also gave an IC50 (Raji) of under 100 µM, an IC50 (PC3) of under 100 µM and an IC50 (DBRTG) of under 100 µM. It also gave a CC50 [1] of under 1 µM.
CCOc1ccc(N(CCCl)CCCl)cc1C[C@H](N)CC(=O)O [Compound 42, (3S)-3-amino-4-[5-[bis(2-chloroethyl)amino]-2-ethoxy-phenyl]butanoic acid] was tested, and the IC50 (hLAT1) was under 100 µM, the IC50 (hLAT2) was under 100 µM and the CC50 [1] was under 1 µM.
For CC(C)Oc1ccc(N(CCCl)CCCl)cc1C[C@H](N)CC(=O)O [Compound 43, (3S)-3-amino-4-[5-[bis(2-chloroethyl)amino]-2-isopropoxy-phenyl]butanoic acid], the IC50 (hLAT1) was under 100 µM, the IC50 (hLAT2) was under 100 µM and the CC50 [1] was under 1 µM.
N[C@H](CC(=O)O)Cc1cc(CON(CCCl)CCCl)ccc1[N+](=O)[O-] [Compound 45, (3S)-3-amino-4-[5-[bis(2-chloroethyl)aminooxymethyl]-2-nitro-phenyl]butanoic acid] gave an IC50 (hLAT1) of under 100 µM and an IC50 (hLAT2) of under 100 µM.
Cc1ccc(N(CCCl)CCCl)c(C[C@H](N)CC(=O)O)c1 [Compound 50, (3S)-3-amino-4-[2-[bis(2-chloroethyl)amino]-5-methyl-phenyl]butanoic acid] was tested, and the IC50 (HCT116) was under 100 µM, the IC50 (MDA-MB-231) was under 100 µM and the IC50 (U251) was under 100 µM. For the same molecule, the “glioblastoma tumor growth (bioluminescence imaging)” value (U251 MG) was “suppressed glioblastoma tumor growth”, the IC50 (MV411) was under 100 µM and the IC50 794 was under 100 µM. It also gave an IC50 (MCF7) of under 100 µM, an IC50 (LN229) of under 100 µM and an IC50 (hLAT2) of under 100 µM. It also gave an IC50 (42MGBA) of under 100 µM, an IC50 (D283) of under 100 µM and an IC50 (G55) of under 100 µM. The IC50 (Raji) was under 100 µM, the IC50 (PC3) was under 100 µM and the IC50 (DBRTG) was under 100 µM.
Work on N[C@H](CC(=O)O)Cc1cc(CO)ccc1N(CCCl)CCCl [Compound 52, (3S)-3-amino-4-[2-[bis(2-chloroethyl)amino]-5-(hydroxymethyl)phenyl]butanoic acid] yielded an IC50 (hLAT2) of under 100 µM and a CC50 [1] of under 1 µM.
For N[C@H](CC(=O)O)Cc1cc(N(CCCl)CCCl)ccc1N(CCCl)CCCl [Compound 53, (3S)-3-amino-4-[2,5-bis[bis(2-chloroethyl)amino]phenyl]butanoic acid], the IC50 (hLAT2) was under 100 µM and the CC50 [1] was under 1 µM.
Cc1ccc(NCCCl)cc1C[C@H](N)CC(=O)O [Compound 54, (3S)-3-amino-4-[5-(2-chloroethylamino]-2-methyl-phenyl]butanoic acid] showed an IC50 (hLAT2) of under 100 µM.
Molecule Cc1ccc(CBr)cc1C[C@H](N)CC(=O)O [Compound 57, (3S)-3-amino-4-[5-(bromomethyl)-2-methyl-phenyl]butanoic acid] has an IC50 (hLAT1; [3]) of under 100 µM and an IC50 (hLAT2; [4]) of under 100 µM.
Cc1ccc(N(CCO)CCCl)cc1C[C@H](N)CC(=O)O [Compound 58, (3S)-3-amino-4-[5-(2-chloroethyl(2-hydroxyethyl)amino)-2-methyl-phenyl]butanoic acid] showed an IC50 (hLAT1) of under 100 µM.
For COc1ccc(N(CCO)CCCl)cc1C[C@H](N)CC(=O)O [Compound 60, (3S)-3-amino-4-[5-(2-chloroethyl (2-hydroxyethyl)amino)-2-methoxy-phenyl]butanoic acid], the IC50 (hLAT1) was under 100 µM and the IC50 (hLAT2) was under 100 µM.
With N[C@@H](COc1cccc(N(CCCl)CCCl)c1)CC(=O)O [Compound 68, (3R)-3-amino-4-[3-[bis(2-chloroethyl)amino]phenoxy]butanoic acid] the IC50 (hLAT1) was under 100 µM.
For N[C@@H](COc1ccc(N(CCCl)CCCl)cc1)CC(=O)O [Compound 69, (3R)-3-amino-4-[4-[bis(2-chloroethyl)amino]phenoxy]butanoic acid], the IC50 (hLAT1) was under 100 µM.

Source: patent US10017459B2, “β-substituted β-amino acids and analogs as chemotherapeutic agents and uses thereof” (Quadriga Biosciences, Inc., priority 2015, dated 2018)
